Test systems include PC-3; UO-31; M14; HCT-15; SF-539; 786-0; LOX IMVI; T47D; OVCAR-4; OVCAR-8; HT-29; SNB-75; SK-MEL-28; OVCAR-3; SK-MEL-2; IGROV-1; HOP-62; SR; HCC 2998.
Common to all, as to test: NCI anticancer screen, dose series, 48 h

Each structure is given as a SMILES string.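 Briefly, cells in 96-well plates were exposed to five compound concentrations for 48 h, and endpoints were estimated by linear interpolation. At the GI50, growth is halved.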 Activity calls are given as the source filed them. Cut-off read from the data, not from the text of the source: active = GI50 up to about 1.1 µM and inactive = higher. Where only a bound is given, the exact number is not on record here.

The values below come from ChEMBL document CHEMBL1201862, “PubChem BioAssay data set” (2004).

In the case of `CC(C)(C)OC(=O)C(C#N)C(=O)c1ccc(C(=O)O)[nH]1` (stereo not drawn), the GI50 in the assay on PC-3 was 33.7 µM (inactive); with UO-31, 30.8 µM (inactive); with M14, 44.2 µM (inactive); in the assay with HCT-15, 23.2 µM; in the assay with SF-539, 51.6 µM (inactive); with 786-0, 51.9 µM (inactive). The GI50 was 27.7 µM (inactive) in the assay with LOX IMVI; 34.6 µM (inactive) in the assay on T47D; 19.5 µM (inactive) with OVCAR-4; 30.1 µM (inactive) in the assay with OVCAR-8; 39.2 µM (inactive) in the assay on HT-29; 50.5 µM (inactive) in the assay with SNB-75. Further, the values for the GI50 with SK-MEL-28, in the assay on OVCAR-3 and in the assay on SK-MEL-2 were 62.2 µM (inactive), 29.3 µM (inactive) and 23.6 µM (inactive), respectively.

For `Cc1cc(CCC(=O)NCCNc2c3ccccc3nc3ccccc23)cc(C)c1O[Si](C)(C)C(C)(C)C`, the GI50 in the assay with PC-3 was 1.55 µM (inactive); in the assay on UO-31 it was 1.83 µM (inactive); in the assay on M14, 1.66 µM (inactive); in the assay on IGROV-1, 1.76 µM (inactive); in the assay with HCT-15, 0.282 µM; in the assay with SF-539 it was 0.194 µM (active). Further, the GI50 is 0.39 µM (active) with 786-0; 0.148 µM (active) in the assay with LOX IMVI; 1.51 µM (inactive) in the assay with HOP-62; 0.351 µM (active) in the assay on T47D; 1.32 µM (inactive) in the assay on OVCAR-4; 1.47 µM (inactive) in the assay on OVCAR-8. The GI50 in the assay with HT-29 was 0.446 µM (active); in the assay with SK-MEL-28 it was 1.92 µM (inactive); in the assay with OVCAR-3 it was 1.96 µM (inactive); with SR it was 0.214 µM (active); in the assay on SK-MEL-2 it was 1.91 µM (inactive).

As to `CC1(C)CNCC(C)(OCc2ccccc2)C(=O)NC(C)(C)CNCC(C)(OCc2ccccc2)C(=O)N1` (stereo not drawn), the GI50 in the assay on PC-3 was > 10 µM (inactive); in the assay on UO-31 it was 6 µM (inactive); in the assay on M14 it was > 10 µM (inactive); in the assay on IGROV-1, > 10 µM (inactive); in the assay on HCT-15, above 10 µM; in the assay on SF-539, > 10 µM (inactive). Besides, the GI50 with 786-0, in the assay on HCC 2998, in the assay on LOX IMVI, in the assay on HOP-62, in the assay with T47D and in the assay with OVCAR-8 was > 10 µM (inactive) each time. Besides, the GI50 in the assay with SNB-75 was 6.27 µM (inactive); in the assay on SK-MEL-28, > 10 µM (inactive); with OVCAR-3 it was > 10 µM (inactive); in the assay on SK-MEL-2, > 10 µM (inactive).

Consider `CO[C@@](c1ccccc1)(c1nc(C#N)c(N)o1)C(F)(F)F`, for which the GI50 is > 100 µM (inactive) with PC-3; 68.1 µM (inactive) in the assay on UO-31; > 100 µM (inactive) in the assay with M14; > 100 µM (inactive) in the assay on IGROV-1; 85.9 µM in the assay on HCT-15; > 100 µM (inactive) in the assay on SF-539. Also, the GI50 with 786-0, in the assay on HCC 2998, in the assay on LOX IMVI, in the assay on HOP-62, in the assay on T47D and in the assay on OVCAR-4 was > 100 µM (inactive) each time. Further, the GI50 in the assay with OVCAR-8 is > 100 µM (inactive); with SNB-75, 20.5 µM (inactive); in the assay on SK-MEL-28, > 100 µM (inactive); in the assay with OVCAR-3, > 100 µM (inactive); with SK-MEL-2, > 100 µM (inactive).

On to `COc1c(OC)c(OC)c(-c2cc(=O)c3c(OC)c(OC)c(OC)c(OC)c3o2)c(OC)c1OC`, for which the GI50 in the assay on UO-31 was 29.2 µM (inactive); in the assay with M14, 44 µM (inactive); in the assay on IGROV-1 it was 25.5 µM (inactive); in the assay on HCT-15, 26.7 µM; in the assay with SF-539 it was 48.9 µM (inactive); with 786-0, 21.5 µM (inactive). The GI50 in the assay with HCC 2998 is 28.7 µM (inactive); in the assay on LOX IMVI, 30.9 µM (inactive); in the assay on HOP-62, 81.8 µM (inactive); with T47D, 9.14 µM (inactive); in the assay on OVCAR-4 it was 18.1 µM (inactive); with OVCAR-8 it was 31.1 µM (inactive). In addition, the GI50 in the assay on HT-29 is 28.8 µM (inactive); in the assay with SNB-75, 57.5 µM (inactive); with SK-MEL-28, 90.2 µM (inactive); in the assay with OVCAR-3, 16.3 µM (inactive); in the assay with SR, > 100 µM (inactive); in the assay on SK-MEL-2, 56.6 µM (inactive).

`CO[C@]12C[C@H](CNC(=O)c3ccc[nH]3)O[C@H]1NC(=O)N2`: the GI50 in the assay with PC-3 is > 100 µM (inactive); in the assay with UO-31 it was > 100 µM (inactive); in the assay with M14 it was > 100 µM (inactive); with IGROV-1 it was > 100 µM (inactive); in the assay with HCT-15 it was above 100 µM; in the assay on SF-539, > 100 µM (inactive). The GI50 with 786-0 is > 100 µM (inactive); with LOX IMVI it was > 100 µM (inactive); with HOP-62, > 100 µM (inactive); with T47D it was > 100 µM (inactive); with OVCAR-8, > 100 µM (inactive); in the assay with HT-29, 33.7 µM (inactive). Moreover, the results for the GI50 in the assay on OVCAR-3, in the assay on SR and with SK-MEL-2 were > 100 µM (inactive), 9.31 µM (inactive) and > 100 µM (inactive), respectively.

In the case of `CCOC(=O)/C(C(=O)c1ccc([N+](=O)[O-])cc1)=C(\NS(=O)(=O)c1cc(C)c(Cl)cc1[S-])[n+]1ccc(N(C)C)cc1`, the GI50 in the assay on PC-3 was 16.7 µM (inactive); in the assay on UO-31, 35.3 µM (inactive); with M14, 31.1 µM (inactive); in the assay with IGROV-1, 45.3 µM (inactive); in the assay with HCT-15, 34 µM; with SF-539, 21.5 µM (inactive). Moreover, the GI50 with 786-0 is 30.3 µM (inactive); with HOP-62, 29.4 µM (inactive); in the assay with T47D it was 50.8 µM (inactive); with OVCAR-4 it was 32.9 µM (inactive); with OVCAR-8, 38.9 µM (inactive); with HT-29 it was 24 µM (inactive). Further, the GI50 with SK-MEL-28 was 28.3 µM (inactive); in the assay on OVCAR-3, 32.3 µM (inactive); in the assay with SR it was 31.6 µM (inactive); in the assay on SK-MEL-2, 3.83 µM (inactive).

Regarding `O=c1[nH]nc(-c2ccccc2)n1/N=C/c1c[nH]c2ccccc12`, the GI50 with PC-3 was > 100 µM (inactive); with UO-31, > 100 µM (inactive); in the assay on M14 it was > 100 µM (inactive); in the assay on IGROV-1 it was 69.5 µM (inactive); in the assay with HCT-15, above 100 µM; in the assay with SF-539, > 100 µM (inactive). For the same molecule, the GI50 in the assay on 786-0 is 56.2 µM (inactive); in the assay with HCC 2998 it was > 100 µM (inactive); in the assay on LOX IMVI, 58.7 µM (inactive); with HOP-62 it was > 100 µM (inactive); in the assay on T47D it was > 100 µM (inactive); with OVCAR-4, > 100 µM (inactive). In addition, the GI50 is 32.7 µM (inactive) in the assay on OVCAR-8; 41 µM (inactive) in the assay with HT-29; > 100 µM (inactive) in the assay on SK-MEL-28; > 100 µM (inactive) in the assay on OVCAR-3; > 100 µM (inactive) in the assay on SK-MEL-2.

Consider `COc1cc2c(cc1OC)C(C)N(C)c1c-2c(OC(C)=O)cc2cc(OC)c(OC)cc12` (stereo not drawn), for which the GI50 was 14.7 µM (inactive) with PC-3; 12.1 µM (inactive) in the assay with UO-31; 11.7 µM (inactive) with M14; 15 µM in the assay on HCT-15; 16 µM (inactive) in the assay with SF-539; 13.1 µM (inactive) in the assay with 786-0. In addition, the GI50 was 15.6 µM (inactive) with HCC 2998; 13.2 µM (inactive) in the assay with LOX IMVI; 21.3 µM (inactive) in the assay with HOP-62; 8.24 µM (inactive) in the assay on T47D; 5.61 µM (inactive) with OVCAR-4; 9.4 µM (inactive) in the assay on OVCAR-8. Besides, the GI50 was 8.04 µM (inactive) with HT-29; 31 µM (inactive) in the assay on SNB-75; 19.9 µM (inactive) in the assay with SK-MEL-28; 4.29 µM (inactive) in the assay on OVCAR-3; 13.5 µM (inactive) with SK-MEL-2.

With `O=C1[C@@H]2Cc3c([nH]c4ccccc34)C(C3CCCCC3)N2C(=O)[C@@H]2CCCN12` (stereo partly drawn), the GI50 in the assay on PC-3 was 22.3 µM (inactive); in the assay on UO-31 it was 32.3 µM (inactive); in the assay with M14 it was 37.8 µM (inactive); in the assay on IGROV-1, 29.6 µM (inactive); in the assay on HCT-15, 33.4 µM; in the assay on 786-0, 27.8 µM (inactive). For the same molecule, the GI50 is 28.3 µM (inactive) with LOX IMVI; 31.4 µM (inactive) with HOP-62; 60 µM (inactive) in the assay with T47D; 35.2 µM (inactive) in the assay with OVCAR-4; 36.7 µM (inactive) in the assay with OVCAR-8; 28.5 µM (inactive) in the assay on HT-29. Also, the GI50 is 50.2 µM (inactive) in the assay on SK-MEL-28, 20.4 µM (inactive) in the assay with OVCAR-3, 19.9 µM (inactive) in the assay on SR and 20 µM (inactive) in the assay on SK-MEL-2.

On to `COC(=O)c1c(O)c2c(c3c1OC(C)(C)CC3)OC(C)(C)CC2`, for which the GI50 was 17 µM (inactive) in the assay with PC-3; 18.8 µM (inactive) with UO-31; 19.1 µM (inactive) in the assay with M14; 19.6 µM (inactive) with IGROV-1; 21.2 µM with HCT-15; 18 µM (inactive) with SF-539. Moreover, the GI50 with 786-0 was 16.8 µM (inactive); in the assay on HCC 2998 it was 16.4 µM (inactive); in the assay on HOP-62, 21 µM (inactive); in the assay with T47D it was 21.8 µM (inactive); in the assay on OVCAR-4, 32.2 µM (inactive); in the assay with OVCAR-8 it was 17.6 µM (inactive). The GI50 in the assay on HT-29 was 16.7 µM (inactive); with SNB-75, > 10 µM (inactive); in the assay on SK-MEL-28, 26.6 µM (inactive); in the assay on OVCAR-3, 20 µM (inactive).

With `Cc1nc2c(=O)n(-c3ccccc3)c3ccccc3c2o1`, the GI50 in the assay with PC-3 was > 100 µM (inactive); in the assay on UO-31 it was > 100 µM (inactive); in the assay on M14 it was > 100 µM (inactive); in the assay with IGROV-1, > 100 µM (inactive); in the assay with HCT-15, above 100 µM; in the assay with SF-539, > 100 µM (inactive). The GI50 in the assay with 786-0, in the assay on HCC 2998, with LOX IMVI, with HOP-62, in the assay with T47D and in the assay with OVCAR-4 was > 100 µM (inactive) each time. Also, the GI50 in the assay with OVCAR-8, in the assay with HT-29, in the assay with SNB-75, in the assay with SK-MEL-28, with OVCAR-3 and in the assay with SK-MEL-2 was > 100 µM (inactive) each time.
